Results on two molecules are retold here after patent US12612411B1, “Imidazopyrazine derivatives, process for preparation thereof, and their uses as luciferins” (INSTITUT PASTEUR, priority 2017, dated 2026).

This test has as its target T1, nanoKAZ (Oplophorus gracilirostris, UniProt Q9GV45, A31E/A60N/A81I/F95D/I117V/K70R/L54V/L99Q/M102K/N193R/P142E/Q151K/Q38R/Q45L/V71I/Y165I).
T1 construct: luciferase catalytic domain (nanoKAZ, 19 kDa) from the Oplophorus-derived luciferase
The test can be described thus: Michaelis-Menten parameters of nanoKAZ from Lineweaver-Burk representation. It counts as biochemical. The settings on record: extrapolated from Lineweaver-Burk, constant enzyme concentration. From the text:
The two dotted lines (linear regression) are converging to the same intercept with the x-axis (−1/Km) and different intercepts with the y-axis (1/Vmax). The equations of the two linear regressions are indicated and the corresponding correlation factors (R^2) with the experimental data are reported.
Considering the hypothesis of a Michaelis-Menten mechanism for the nanoKAZ, the Km and Vmax were extrapolated from the Lineweaver-Burk representation of the enzyme activity catalyzing either Q-1 or Q-3. […] The data have been fitted with linear regression with satisfying high correlation factors (R). The Km are the same for both substrates (Km=2 μM) whereas the Vmax is 3-times lower for Q-1 (0.6·10^6 RLU/sec) than for Q-3 (2.0·10^6 RLU/sec).

Molecules are shown by their SMILES.

T1 sequence (Q9GV45 other isoform, or with tags, fused parts or gaps with the stated changes): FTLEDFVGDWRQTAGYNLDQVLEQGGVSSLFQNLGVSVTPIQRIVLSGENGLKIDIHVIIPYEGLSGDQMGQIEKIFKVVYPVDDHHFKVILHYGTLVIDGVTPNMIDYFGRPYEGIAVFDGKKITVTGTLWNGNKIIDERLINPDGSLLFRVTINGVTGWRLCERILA

A word on the Km: it is the substrate concentration at which the rate is half of its maximum. With `O=c1c(Cc2ccco2)nc2c(Cc3ccccc3)[nH]c(-c3ccccc3)cn1-2` [Q-1, 8-benzyl-2-(furan-2-ylmethyl)-6-phenylimidazo[1,2-a]pyrazin-3(7H)-one, reference compound], the Km was 2 µM.
On to `Cc1ccc(Cc2nc3c(Cc4ccccc4)[nH]c(-c4ccccc4)cn-3c2=O)o1` [Q-3, 8-benzyl-2-((5-methylfuran-2-yl)methyl)-6-phenylimidazo[1,2-a]pyrazin-3(7H)-one], for which the Km is 2 µM.
